Source: patent US10208015B2, “Aryl-triazolyl pyridines as pest control agents” (BAYER ANIMAL HEALTH GMBH, priority 2014, dated 2019)
Like-named read-outs stand apart in the source and are kept apart here.

What was measured:
[1] = logP by HPLC on reversed-phase column (C18), EEC Directive 79/831 Annex V.A8; assay type: physicochemical; details: for logP: HPLC, C18, acetonitrile (0.1% formic acid)/water (0.09% formic acid) gradient
Boophilus microplus = Boophilus microplus injection test; assay type: in vivo; details: application rate 20 μg/animal, assessed after 7 days
Procedure: Boophilus microplus—Injection Test • Solvent: dimethyl sulphoxide […] The animals are transferred into dishes and kept in a climate-controlled room. Efficacy is assessed after 7 days by laying of fertile eggs. Eggs which are not visibly fertile are stored in a climate-controlled cabinet until the larvae hatch after about 42 days.

Ctenocephalides felis = Ctenocephalides felis oral test; assay type: in vivo; details: application rate 100 ppm in citrated cattle blood, after 2 days
Description: Ctenocephalides felis—Oral Test • Solvent: dimethyl sulphoxide […] Dilution with citrated cattle blood gives the desired concentration. About 20 unfed adult cat fleas (Ctenocephalides felis) are placed into a chamber which is closed at the top and bottom with gauze. A metal cylinder whose bottom end is closed with parafilm is placed onto the chamber. The cylinder contains the blood/active compound preparation, which can be imbibed by the fleas through the parafilm membrane.

Lucilia cuprina = Lucilia cuprina test; assay type: in vivo; details: application rate 100 ppm, L1 larvae, after 2 days
Procedure: (§1) • Solvent: dimethyl sulphoxide
(§2) To produce a suitable preparation of active compound, 10 mg of active compound are mixed with 0.5 ml of dimethyl sulphoxide, and the concentrate is diluted with water to the desired concentration.
About 20 L1 larvae of the Australian sheep blowfly (Lucilia cuprina) are transferred into a test vessel containing minced horsemeat and the active compound preparation of the desired concentration.
After 2 days, the kill in % is determined. 100% means that all the larvae have been killed; 0% means that no larvae have been killed.

Musca domestica = Musca domestica test; assay type: in vivo; details: application rate 100 ppm, adult houseflies, after 2 days
Procedure: as §1, §2
Vessels containing a sponge treated with sugar solution and the active compound preparation of the desired concentration are populated with 10 adult houseflies (Musca domestica).
After 2 days, the kill in % is determined. 100% means that all of the flies have been killed; 0% means that none of the flies have been killed.

Phaedon cochleariae = Phaedon cochleariae spray test; assay type: in vivo; details: application rate 100 g/ha, after 7 days
Procedure: Phaedon Cochleariae—Spray Test
(§3) • Solvent: 78.0 parts by weight of acetone • 1.5 parts by weight of dimethylformamide • Emulsifier: alkylaryl polyglycol ether
(§4) To produce a suitable preparation of active compound, 1 part by weight of active compound is dissolved using the stated parts by weight of solvent and made up with water containing an emulsifier concentration of 1000 ppm until the desired concentration is attained. To produce further test concentrations, the preparation is diluted with emulsifier-containing water.
After 7 days, the efficacy in % is determined. 100% means that all the beetle larvae have been killed; 0% means that no beetle larvae have been killed.

Spodoptera frugiperda = Spodoptera frugiperda spray test; assay type: in vivo; details: application rate 100 g/ha, after 7 days
Procedure: Spodoptera Frugiperda—Spray Test
as §3, §4
Leaf discs of maize (Zea mays) are sprayed with an active compound preparation of the desired concentration and, after drying, populated with caterpillars of the armyworm (Spodopterafrugiperda).
After 7 days, the efficacy in % is determined. 100% means that all the caterpillars have been killed; 0% means that no caterpillars have been killed.

Tetranychus urticae = Tetranychus urticae spray test, OP-resistant; assay type: in vivo; details: after 6 days
Procedure: Tetranychus Urticae—Spray Test, OP-Resistant
as §3
To produce further test concentrations, the preparation is diluted with emulsifier-containing water.
After 6 days, the efficacy in % is determined. 100% means that all the spider mites have been killed; 0% means that none of the spider mites have been killed.

[2] = system: Boophilus microplus Parkhurst strain, SP-resistant; assay: Boophilus microplus dip test; assay type: in vivo; details: application rate 100 ppm, assessed after 7 days
Procedure: Boophilus microplus—Dip Test
• Test animals: cattle ticks (Boophilus microplus) Parkhurst strain, SP-resistant • Solvent: dimethyl sulphoxide
10 mg of active compound are dissolved in 0.5 ml of dimethyl sulphoxide. To produce a suitable formulation, the active compound solution is diluted with water to the concentration desired in each case.
This active compound preparation is pipetted into tubes. 8-10 engorged adult female cattle ticks (Boophilus microplus) are transferred into a further tube with holes. The tube is immersed into the active compound preparation, and all the ticks are completely wetted. After the liquid has run out, the ticks are transferred on filter discs into plastic dishes and stored in a climate-controlled room.
Efficacy is assessed after 7 days by laying of fertile eggs. Eggs which are not visibly fertile are stored in a climate-controlled cabinet until the larvae hatch after about 42 days. An efficacy of 100% means that none of the ticks has laid any fertile eggs; 0% means that all the eggs are fertile.

Structure (SMILES) | logP [1] | efficacy (laying of fertile eggs) (Boophilus microplus) [%] | efficacy (kill in %) (Ctenocephalides felis) [%] | efficacy (kill in %) (Lucilia cuprina) [%] | efficacy (kill in %) (Musca domestica) [%] | also measured
CCc1cc(C(F)(C(F)(F)F)C(F)(F)F)cc(Br)c1N [2-bromo-6-ethyl-4-heptafluoroisopropylaniline] |  |  |  |  |  | log P (HPLC-MS) [1]: 4.38
CCc1cc(C(F)(C(F)(F)F)C(F)(F)F)cc(Cl)c1N [2-chloro-6-ethyl-4-heptafluoroisopropylaniline] |  |  |  |  |  | log P (HPLC-MS) ([1]; HPLC-MS method a)): 4.67
Cc1cc(C(F)(C(F)(F)F)C(F)(F)F)cc(C(F)(F)F)c1N [4-heptafluoroisopropyl-2-methyl-6-trifluoromethylaniline] |  |  |  |  |  | log P (HPLC-MS) ([1]; HPLC-MS method a)): 4.67
COc1ncc(-c2cn(-c3c(Cl)cc(C(F)(C(F)(F)F)C(F)(F)F)cc3Cl)nn2)cc1C(=O)NC1(C#N)CC1 [Example 4] | 4.3 | 100 | 100 | 100 | 100 | efficacy in % (Phaedon cochleariae): 100%; efficacy in % (Spodoptera frugiperda): 100%
COc1ncc(-c2cn(-c3c(C)cc(C(F)(C(F)(F)F)C(F)(F)F)cc3C)nn2)cc1C(=O)NC1(C#N)CC1 [Example 7] | 4.2 | 100 | 100 | 100 |  | efficacy in % (Phaedon cochleariae): 100%; efficacy in % (Spodoptera frugiperda): 100%
COc1ncc(-c2cn(-c3c(Cl)cc(C(F)(C(F)(F)F)C(F)(F)F)cc3Cl)nn2)cc1C(=O)NC1CC1 [Example 10] | 4.4 | 100 | 100 | 95 |  | 
COc1ncc(-c2cn(-c3c(C)cc(C(F)(C(F)(F)F)C(F)(F)F)cc3C)nn2)cc1C(=O)NC1CC1 [Example 11] | 4.3 | 100 | 100 | 100 | 100 | efficacy in % (Phaedon cochleariae): 100%; efficacy in % (Spodoptera frugiperda): 100%; efficacy in % (Tetranychus urticae; application rate 20 g/ha): 90%
CCc1cc(C(F)(C(F)(F)F)C(F)(F)F)cc(C)c1-n1cc(-c2cnc(Cl)c(C(=O)N(C)C3CC3)c2)nn1 [Example 19] | 4.6 | 100 | 100 | 100 | 80 | efficacy (laying of fertile eggs) [2]: 100%
CCc1cc(C(F)(C(F)(F)F)C(F)(F)F)cc(C)c1-n1cc(-c2cnc(Cl)c(C(=O)NC3CC3)c2)nn1 [Example 20] | 4.1 | 100 | 100 | 100 |  | efficacy (laying of fertile eggs) [2]: 100%
Cc1cc(C(F)(C(F)(F)F)C(F)(F)F)cc(Br)c1-n1cc(-c2cnc(Cl)c(C(=O)N(C)C3CC3)c2)nn1 [Example 21] | 4.4 | 100 | 100 | 100 | 100 | efficacy (laying of fertile eggs) [2]: 100%
Cc1cc(C(F)(C(F)(F)F)C(F)(F)F)cc(Br)c1-n1cc(-c2cnc(Cl)c(C(=O)NC3CC3)c2)nn1 [Example 22] | 3.9 | 100 | 100 | 100 | 100 | efficacy (laying of fertile eggs) [2]: 100%
CCc1cc(C(F)(C(F)(F)F)C(F)(F)F)cc(C)c1-n1cc(-c2cnc(Cl)c(C(=O)NCC(F)(F)F)c2)nn1 [Example 23] | 4.5 | 100 | 100 | 100 |  | 
CCc1cc(C(F)(C(F)(F)F)C(F)(F)F)cc(C)c1-n1cc(-c2cnc(Cl)c(C(=O)NC(C)C)c2)nn1 [Example 24] | 4.4 | 100 | 100 |  |  | 
CCNC(=O)c1cc(-c2cn(-c3c(C)cc(C(F)(C(F)(F)F)C(F)(F)F)cc3CC)nn2)cnc1Cl [Example 25] | 4.1 | 100 | 100 | 100 | 80 | efficacy (laying of fertile eggs) [2]: 100%
Cc1cc(C(F)(C(F)(F)F)C(F)(F)F)cc(Br)c1-n1cc(-c2cnc(Cl)c(C(=O)NCC(F)(F)F)c2)nn1 [Example 26] | 4.3 | 100 | 100 | 100 | 100 | 
CCNC(=O)c1cc(-c2cn(-c3c(C)cc(C(F)(C(F)(F)F)C(F)(F)F)cc3Br)nn2)cnc1Cl [Example 27] | 3.9 | 100 | 100 | 100 | 100 | efficacy (laying of fertile eggs) [2]: 100%
O=C(NCC(F)(F)F)c1cc(-c2cn(-c3c(Cl)cc(-c4ccccc4)cc3Cl)nn2)cnc1Cl [Example 28] | 3.9 | 100 | 100 |  |  | 
CC(C)NC(=O)c1cc(-c2cn(-c3c(Cl)cc(-c4ccccc4)cc3Cl)nn2)cnc1Cl [Example 29] | 3.8 | 100 |  |  |  | 
CCNC(=O)c1cc(-c2cn(-c3c(Cl)cc(-c4ccccc4)cc3Cl)nn2)cnc1Cl [Example 30] | 3.5 | 100 | 100 | 100 |  | 
CN(C(=O)c1cc(-c2cn(-c3c(Cl)cc(-c4ccccc4)cc3Cl)nn2)cnc1Cl)C1CC1 [Example 31] | 4.0 | 100 | 100 | 100 |  | 
O=C(NC1CC1)c1cc(-c2cn(-c3c(Cl)cc(-c4ccccc4)cc3Cl)nn2)cnc1Cl [Example 32] | 3.5 | 100 | 100 | 100 |  | 
O=C(NC1CC1)c1cc(-c2cn(-c3c(Cl)cc(C(F)(C(F)(F)F)C(F)(F)F)cc3OC(F)(F)F)nn2)cnc1Cl [Example 33] | 4.1 | 100 | 100 | 100 | 100 | efficacy (laying of fertile eggs) [2]: 100%
N#CC1(NC(=O)c2cc(-c3cn(-c4c(Cl)cc(C(F)(C(F)(F)F)C(F)(F)F)cc4OC(F)(F)F)nn3)cnc2Cl)CC1 [Example 34] | 4.0 | 100 | 100 | 100 | 100 | efficacy in % (Phaedon cochleariae): 100%; efficacy in % (Tetranychus urticae; application rate 100 g/ha): 100%
O=C(NC1CC1)c1cc(-c2cn(-c3c(Cl)cc(C(F)(C(F)(F)F)C(F)(F)F)cc3OC(F)F)nn2)cnc1Cl [Example 36] | 3.7 |  |  |  |  | 
CN(C(=O)c1cc(-c2cn(-c3c(Cl)cc(C(F)(C(F)(F)F)C(F)(F)F)cc3OC(F)F)nn2)cnc1Cl)C1CC1 [Example 37] | 4.2 |  |  |  |  | 
N#CC1(NC(=O)c2cc(-c3cn(-c4c(Cl)cc(C(F)(C(F)(F)F)C(F)(F)F)cc4OC(F)F)nn3)cnc2Cl)CC1 [Example 38] | 3.7 |  |  |  |  | 
